Results taken from article PMC6222614, “Disubstituted 4-Chloro-3-nitrophenylthiourea Derivatives: Antimicrobial and Cytotoxic Studies” (Molecules : A Journal of Synthetic Chemistry and Natural …, 2018).
pEC50: −log10 of the molar value. Read-outs that look alike come from different tables or passages of the source.

Experiments:
[1] = system: HaCaT cells; experiment: Proliferation rate in cultures of HaCaT cells (trypan blue counting); format: cell-based, human; conditions: lowest concentrations (8 µM for 11 and 13, 37 µM for 25), 48 h
Protocol: (§1) Human immortal keratinocyte cell line from adult human skin (HaCaT) was purchased from American Type Culture Collection (Rockville, MD, USA), and cultured in Dulbecco’s Modified Eagle’s Medium (DMEM), supplemented with antibiotics (penicillin and streptomycin), 10% heat-inactivated FBS-fetal bovine serum (Gibco Life Technologies, Carlsbad, CA, USA) at 37 °C and 5% CO2 atmosphere. Cells were passaged using trypsin-EDTA (Gibco Life Technologies, Carlsbad, CA, USA) and cultured in 24-well plates (2.5 × 10^4 cells per well). Experiments were conducted in DMEM with 2% FBS.
After 48 h incubation with the lowest concentration of the tested compound the increased number of viable cells were assessed by direct counting of cells using trypan blue with a Countess Automated Cell Counter (Invitrogen, Carlsbad, CA, USA). The results are presented as a % of viable and dead cells versus control.

[2] = system: CRL7065; experiment: Antiproliferative assay (MTT), normal cell line; format: cell-based, human; conditions: normal foreskin fibroblasts, concentration reducing cell proliferation by 50%, 96 h
Protocol: (§2) Cell lines derived from human solid tumors were: Skin melanoma (SK-MEL-28); prostate carcinoma (DU-145). Normal tissues foreskin fibroblasts (CRL-7065) were also used. Cells were seeded at 1 × 10^5 cells/mL in 96 well plates in specific media supplemented with 10% FCS and antibiotics, as above. Cell cultures were then incubated at 37 °C in a humidified, 5% CO2 atmosphere in the absence or presence of serial dilutions of test compounds. Cell viability was determined after 96 h at 37 °C by the MTT method.

[3] = system: SK-MEL-28; experiment: Antiproliferative assay (MTT); format: cell-based, human; conditions: skin melanoma, concentration reducing cell proliferation by 50%, 96 h
Protocol: as §2

[4] = system: DU145; experiment: Antiproliferative assay (MTT); format: cell-based, human; conditions: prostate carcinoma, concentration reducing cell proliferation by 50%, 96 h
Protocol: as §2

[5] = system: MT-4 cells; experiment: Cytotoxicity against mock-infected MT-4 cells (MTT); format: cell-based, human; conditions: concentration reducing viability of mock-infected MT-4 cells by 50%, 96 h
In short: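 Uninfected MT-4 cells (HTLV-1-transformed human CD4+ T cells) seeded at 1 × 10^5 cells/mL in RPMI-1640 with 10% FBS and grown with serially diluted compounds at 37 °C, 5% CO2. Viability read by MTT after 96 h.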

[6] = system: HaCaT cells; experiment: Lactate dehydrogenase (LDH) release assay in HaCaT cells; format: cell-based; conditions: 24 h
Protocol: Cells were passaged using trypsin-EDTA (Gibco Life Technologies, Carlsbad, CA, USA) and cultured in 24-well plates (2.5 × 10^4 cells per well). Experiments were conducted in DMEM with 2% FBS.
Release of lactate dehydrogenase (LDH) from the cytosol to culture medium is a marker of cell death. The assay was performed after 24 h incubation of HaCaT cells in 24-well plates with investigated concentrations of each compound. The activity of LDH released from the cytosol of damaged cells to the supernatant was measured using the protocol of the cytotoxicity detection kit LDH test described by the manufacturer (Roche Diagnostics, Berlin, Germany). Absorbance was measured at 490 nm using a microplate reader (using Epoch microplate reader, BioTek Inc., Winooski, VT, USA) equipped with Gen5 software (BioTech Instruments, Inc., Biokom, Janki, Polska)
Compounds mediated cytotoxicity expressed as the LDH release (%) was determined by the following equation: [(A test sample—A low control)/(A high control—A low control)] × 100% (A-absorbance); where “low control” were cells in DMEM with 2% FBS without tested compounds, and “high control” were cells incubated in DMEM with 2% FBS with 10% Triton X-100 (100% LDH release).

[7] = system: CCRF-SB; experiment: Antiproliferative assay (MTT); format: cell-based, human; conditions: concentration reducing cell proliferation by 50%, 96 h, mean of three determinations
Protocol: (§3) Cell lines derived from human hematological tumors were: CD4+ human T-cells containing an integrated HTLV-1 genome (MT-4); CD4+ human acute T-lymphoblastic leukemia (CCRF-CEM); human splenic B-lymphoblastoid cells (WIL-2NS); human acute B-lymphoblastic leukemia (CCRF-SB). Cells were seeded at an initial density of 1 × 10^5 cells/mL in 96 well plates in RPMI-1640 medium supplemented with 10% fetal calf serum (FCS), 100 units/mL penicillin G and 100 μg/mL streptomycin.
as §2

[8] = system: MT-4; experiment: Antiproliferative assay (MTT); format: cell-based, human; conditions: concentration reducing cell proliferation by 50%, 96 h, mean of three determinations
Protocol: as §3, §2

[9] = system: CCRF-CEM; experiment: Antiproliferative assay (MTT); format: cell-based, human; conditions: concentration reducing cell proliferation by 50%, 96 h, mean of three determinations
Protocol: as §3, §2

[10] = system: WIL-2NS; experiment: Antiproliferative assay (MTT); format: cell-based, human; conditions: concentration reducing cell proliferation by 50%, 96 h, mean of three determinations
Protocol: as §3, §2

[11] = system: HIV-1 IIIB; experiment: Anti-HIV-1 activity: protection of MT-4 cells from virus-induced cytopathogenicity (MTT); format: cell-based, Human Immunodeficiency Virus type-1; conditions: 50% protection of MT-4 cells from HIV-1 induced cytopathogenicity, MTT, 4-day incubation; read-out: HIV-1IIIB EC50
In short: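 MT-4 cells (1 × 10^4/well) infected with HIV-1 IIIB at m.o.i. 0.01 (100 CCID50) in presence of serial compound dilutions. Protection from virus-induced cytopathogenicity measured by MTT viability after 4 days at 37 °C.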

[12] = system: HaCaT cells; experiment: Cell viability in HaCaT cells (MTT mitochondrial reduction); format: cell-based, human
Protocol: as §1
The cell viability assay was assessed by the determination of MTT salt (3-(4,5-dimethylthiazol-2-yl)-2,5-diphenyltetrazolium bromide, Sigma-Aldrich Chemie, Buchs, Germany) conversion by mitochondrial dehydrogenase. […] Absorbance of solubilized formazan was measured spectrophotometrically at 570 nm (using Epoch microplate reader, BioTek Inc., Winooski, VT, USA, equipped with Gen5 software (BioTech Instruments, Inc., Biokom, Janki, Polska).
Cell viability was presented as a percent of MTT in the treated cells versus the control (cells incubated in serum-free DMEM without extracts). The relative MTT level (%) was calculated as [A]/[B] × 100, where [A] is the absorbance of the test sample and [B] is the absorbance of the control sample containing the untreated cells. […]

Row | SMILES | inhibition of viable cell proliferation [1] | CC50 [2] [µM] | CC50 [3] [µM] | CC50 [4] [µM] | CC50 [5] [µM] | cell mortality (LDH release) increased to [6] [%] | LD10 (concentration at which 10% of cells were dead) ([6]; LDH assay) [µM] | CC50 [7] [µM] | CC50 [8] [µM] | CC50 [9] [µM] | CC50 [10] [µM] | pEC50 [11] | cytotoxicity (MTT) [12] [%] | release of LDH ([6]; concentrations 8 and 16 µM) [%] | cytotoxicity (MTT) ([12]; HaCaT, 24 h, moderate according to ISO 10993-5) [%] | cytotoxicity as compared to the LD10 value ([6]; all applied concentrations (37 µM and higher)) [fold]
1 | O=[N+]([O-])c1cc(NC(=S)Nc2ccc(Cl)c(Cl)c2)ccc1Cl [Compound 11] | ~65% | 16 | 8.5 | 6 | 7.9 | 20 | 8 | 8.6 | 7.9 | 8 | 9.9 | < 5.10 | – | – | – | –
2 | Cc1ccc(NC(=S)Nc2ccc(Cl)c([N+](=O)[O-])c2)cc1Cl [Compound 13] | 30–40% | 16 | 6 | 7 | 8 | 30 | – | 6.7 | 8 | 4 | 7.6 | < 5.10 | 50 | ~10 | – | –
3 | O=[N+]([O-])c1cc(NC(=S)NCc2ccccc2)ccc1Cl [Compound 25] | 30–40% | – | – | – | 36.7 | – | – | – | – | – | – | < 4.44 | – | – | 50 | 7
